# Test results as given in article PMC4674695, “Antagonism of Nav channels and α1-adrenergic receptors contributes to vascular smooth muscle effects of ranolazine” (Scientific Reports, 2015).
# System: T1, tetrodotoxin-sensitive voltage-gated Nav channels
# T1 construct: gene Scn1a
# Test: whole-cell patch clamp, voltage ramp
# Assay type: cell-based, Rattus norvegicus
# Settings: INa at maximal amplitude; veratridine 100 μM present, 2 mM NiCl2, 22–24 °C, pH 7.4; block voltage-dependent
smiles,measurement,value
COc1ccccc1OCC(O)CN1CCN(CC(=O)Nc2c(C)cccc2C)CC1 (stereo not shown) [ranolazine],% inhibition at 20 μM,40%
